# Test results: ChEMBL document CHEMBL4699435, “Synthesis and biological screening of a library of macamides as TNF-alpha inhibitors” (RSC Med Chem, 2020)
# pIC50: −log10 of the molar value.
# Columns and labels:
# [1] = Cytotoxicity against human THP-1 cells assessed as reduction in cell viability incubated for 72 hrs by MTT assay; type: cell-based
# THP-1 [2] = assay: Inhibition of LPS-induced TNFalpha production in human THP-1 cells incubated for 2 hrs followed by LPS stimulation and measured after 12 hrs by ELISA; type: functional, cell-based
# THP-1 [3] = assay: Potency index, ratio of IC50 of N-(2-hydroxyethyl)-7Z,10Z,13Z,16Z-docosatetraenamide to IC50 of compound for inhibition of LPS-induced TNFalpha production in human THP-1 cells incubated for 2 hrs followed by LPS stimulation and measured after 12 hrs by ELISA; type: functional
# THP-1 [4] = assay: Potency index, ratio of IC50 of N-oleoyldopamine-macamide to IC50 of compound for inhibition of LPS-induced TNFalpha production in human THP-1 cells incubated for 2 hrs followed by LPS stimulation and measured after 12 hrs by ELISA; type: functional
# THP-1 [5] = assay: Potency index, ratio of IC50 of C87 to IC50 of compound for inhibition of LPS-induced TNFalpha production in human THP-1 cells incubated for 2 hrs followed by LPS stimulation and measured after 12 hrs by ELISA; type: functional
Structure (SMILES),pIC50 (THP-1 [2]),CC50 at 72 h [1] [µM],Ratio IC50 (THP-1 [3]),Ratio IC50 (THP-1 [4]),Ratio IC50 (THP-1 [5])
CCCCCCCC/C=C\CCCCCCCC(=O)NCc1ccccc1,4.82,97.3,–,–,–
CCCCCCCCCCCCCCCC(=O)NCc1ccccc1,4.37,100,–,–,–
CCCCCCCCCCCCCCCCCC(=O)NCc1ccccc1,4.78,100,–,–,–
CCCCC/C=C\C/C=C\CCCCCCCC(=O)NCc1ccccc1,4.85,98.4,–,–,–
CCCCC/C=C\C/C=C\CCCCCCCC(=O)NC(C)(C)c1ccccc1,4.88,97.3,–,–,–
CCCCC/C=C\C/C=C\CCCCCCCC(=O)NNc1ccccc1,5.05,98.1,–,–,–
CCCCC/C=C\C/C=C\CCCCCCCC(=O)NCCc1ccccc1,4.80,88.2,–,–,–
CCCCC/C=C\C/C=C\CCCCCCCC(=O)Nc1ccccc1,4.68,97.8,–,–,–
CCCCC/C=C\C/C=C\CCCCCCCC(=O)NC(CO)c1ccccc1 (configuration not stated),4.25,98,–,–,–
CCCCC/C=C\C/C=C\CCCCCCCC(=O)NCCCc1ccccc1,5.08,80.3,–,–,–
CCCCCCCC(=O)NCc1ccccc1,4.23,100,–,–,–
CCCCC/C=C\C/C=C\CCCCCCCC(=O)OCc1ccccc1,5.19,95.4,–,–,–
CCCCC/C=C\C/C=C\CCCCCCCC(=O)NC(CC)c1ccccc1 (configuration not stated),4.71,96.5,–,–,–
CCCCCCCC/C=C\CCCCCCCC(=O)O [OLEIC ACID],4.10,100,–,–,–

# These reach a higher pIC50 (THP-1 [2]). Values come first.
pIC50 (THP-1 [2]),Structure (SMILES),CC50 at 72 h [1] [µM],Ratio IC50 (THP-1 [3]),Ratio IC50 (THP-1 [4]),Ratio IC50 (THP-1 [5])
8.05,CCCCC/C=C\C/C=C\CCCCCCCC(=O)OC(C)c1cc(C)cc(C)c1 (configuration not stated),90.1,200,200,12
6.11,CCCCC/C=C\C/C=C\CCCCCCCC(=O)NC(C)C12CC3CC(CC(C3)C1)C2 (configuration not stated),90.9,–,–,–
6.48,CCCCC/C=C\C/C=C\CCCCCCCC(=O)NC(C)c1cccc(C)c1 (configuration not stated),91.7,–,–,–
6.11,CCCCC/C=C\C/C=C\CCCCCCCC(=O)NC(C)c1ccc(F)cc1 (configuration not stated),82.5,–,–,–
5.92,CCCCC/C=C\C/C=C\CCCCCCCC(=O)NC(C)c1ccc(CC)cc1 (configuration not stated),89.8,–,–,–
7.10,CCCCC/C=C\C/C=C\CCCCCCCC(=O)NC(C)c1cc(C)cc(C)c1 (configuration not stated),93.2,–,–,–
6.15,CCCCC/C=C\C/C=C\CCCCCCCC(=O)NC(C)C1CCCCC1 (configuration not stated),93.2,–,–,–
5.74,CCCCC/C=C\C/C=C\CCCCCCCC(=O)NC(C)c1ccc(O)cc1 (configuration not stated),93.5,–,–,–
6.21,CCCCC/C=C\C/C=C\CCCCCCCC(=O)NC(C)c1ccc(C)cc1 (configuration not stated),95,–,–,–
6.13,CCCCC/C=C\C/C=C\CCCCCCCC(=O)NC(C)c1ccc(Br)cc1 (configuration not stated),81.4,–,–,–
6.00,CCCCC/C=C\C/C=C\CCCCCCCC(=O)NC(C)C(C)(C)C (configuration not stated),94.7,–,–,–
5.28,CCCCC/C=C\C/C=C\CCCCCCCC(=O)NC(C)c1ccccc1 (configuration not stated) [MALINAMIDE],95.8,–,–,–
5.45,CCCCCCCC/C=C\CCCCCCCC(=O)NCCc1ccc(O)c(O)c1 [OLEOYL DOPAMINE],> 100,–,–,–
